Reference: ChEMBL document CHEMBL2384975, “Combination Therapy: JAK PI3K/mTOR. A Novel Approach for Cancer Treatment” (2013)

What was measured:
Assay type in all cases: functional, BaF3
[1] = Anticancer activity against mouse BA/F3 cells expressing JAK2 V617F mutation allografted in Harlan SCID mouse assessed as mean survival days at 45 mg/kg, po by luciferase reporter gene assay (reference value: 16 days)
[2] = Anticancer activity against mouse BA/F3 cells expressing JAK2 V617F mutation allografted in Harlan SCID mouse assessed as increase in lifespan at 45 mg/kg, po by luciferase reporter gene assay relative to control
[3] = Anticancer activity against mouse BA/F3 cells expressing JAK2 V617F mutation allografted in Harlan SCID mouse assessed as increase in lifespan at 60 mg/kg, po by luciferase reporter gene assay relative to control
[4] = Anticancer activity against mouse BA/F3 cells expressing JAK2 V617F mutation allografted in Harlan SCID mouse assessed as mean survival days at 60 mg/kg, po by luciferase reporter gene assay (reference value: 16 days)

Cn1c(=O)n(-c2ccc(C(C)(C)C#N)cc2)c2c3cc(-c4cnc5ccccc5c4)ccc3ncc21 [DACTOLISIB]
MSD [1]: 24 days
Activity [2]: 42%

N#CC[C@H](C1CCCC1)n1cc(-c2ncnc3[nH]ccc23)cn1 [RUXOLITINIB]
Activity [3]: 19%
MSD [4]: 19 days
